In ChEMBL document CHEMBL3585344, “Thiazole-based aminopyrimidines and N-phenylpyrazolines as potent antimicrobial agents: synthesis and biological evaluation” (2014):
Converted amounts (≈) assume the structure as drawn.

Experiments:
Penicillium ochrochloron [1] = assay: Fungicidal activity against Penicillium ochrochloron ATCC 9112 after 72 hrs by microdilution method; type: functional
Escherichia coli [2] = assay: Bactericidal activity against Escherichia coli ATCC 35210 after 72 hrs by microdilution method; type: functional
Aspergillus niger [3] = assay: Antifungal activity against Aspergillus niger ATCC 6275 after 72 hrs by microdilution method; type: functional; details: ATCC 6275, 72 h
Staphylococcus aureus [4] = assay: Bactericidal activity against Staphylococcus aureus ATCC 6538 after 72 hrs by microdilution method; type: functional
Aspergillus fumigatus [5] = assay: Fungicidal activity against Aspergillus fumigatus isolated from human after 72 hrs by microdilution method; type: functional
Bacillus cereus [6] = assay: Bactericidal activity against Bacillus cereus clinical isolate after 72 hrs by microdilution method; type: functional
Talaromyces funiculosus [7] = assay: Fungicidal activity against Penicillium funiculosum ATCC 36839 after 72 hrs by microdilution method; type: functional
Aspergillus flavus [8] = assay: Antifungal activity against Aspergillus flavus ATCC 9643 after 72 hrs by microdilution method; type: functional; details: ATCC 9643, 72 h
Pseudomonas aeruginosa [9] = assay: Antibacterial activity against Pseudomonas aeruginosa ATCC 27853 after 24 hrs by microdilution method; type: functional; details: ATCC 27853, 24 h
Talaromyces funiculosus [10] = assay: Antifungal activity against Penicillium funiculosum ATCC 36839 after 72 hrs by microdilution method; type: functional; details: ATCC 36839, 72 h
Enterobacter cloacae [11] = assay: Antibacterial activity against Enterobacter cloacae ATCC 35030 isolated from human after 24 hrs by microdilution method; type: functional; details: ATCC 35030, 24 h
Candida albicans [12] = assay: Antifungal activity against Candida albicans ATCC 10231 isolated from human after 72 hrs by microdilution method; type: functional; details: ATCC 10231, 72 h
Aspergillus ochraceus [13] = assay: Antifungal activity against Aspergillus ochraceus ATCC 12066 after 72 hrs by microdilution method; type: functional; details: ATCC 12066, 72 h
Staphylococcus aureus [14] = assay: Antibacterial activity against Staphylococcus aureus ATCC 6538 after 24 hrs by microdilution method; type: functional; details: ATCC 6538, 24 h
Salmonella typhimurium [15] = assay: Bactericidal activity against Salmonella typhimurium ATCC 13311 after 72 hrs by microdilution method; type: functional, Salmonella enterica subsp. enterica serovar Typhimurium
Salmonella typhimurium [16] = assay: Antibacterial activity against Salmonella typhimurium ATCC 13311 after 24 hrs by microdilution method; type: functional, Salmonella enterica subsp. enterica serovar Typhimurium; details: Salmonella enterica, ATCC 13311, 24 h
Pseudomonas aeruginosa [17] = assay: Bactericidal activity against Pseudomonas aeruginosa ATCC 27853 after 72 hrs by microdilution method; type: functional
Candida albicans [18] = assay: Fungicidal activity against Candida albicans ATCC 10231 isolated from human after 72 hrs by microdilution method; type: functional
Aspergillus ochraceus [19] = assay: Fungicidal activity against Aspergillus ochraceus ATCC 12066 after 72 hrs by microdilution method; type: functional
Bacillus cereus [20] = assay: Antibacterial activity against Bacillus cereus clinical isolate after 24 hrs by microdilution method; type: functional
Aspergillus niger [21] = assay: Fungicidal activity against Aspergillus niger ATCC 6275 after 72 hrs by microdilution method; type: functional
Escherichia coli [22] = assay: Antibacterial activity against Escherichia coli ATCC 35210 after 24 hrs by microdilution method; type: functional; details: ATCC 35210, 24 h
Listeria monocytogenes [23] = assay: Antibacterial activity against Listeria monocytogenes NCTC 7973 after 24 hrs by microdilution method; type: functional; details: NCTC 7973, 24 h
Aspergillus flavus [24] = assay: Fungicidal activity against Aspergillus flavus ATCC 9643 after 72 hrs by microdilution method; type: functional
Penicillium ochrochloron [25] = assay: Antifungal activity against Penicillium ochrochloron ATCC 9112 after 72 hrs by microdilution method; type: functional; details: ATCC 9112, 72 h
Aspergillus fumigatus [26] = assay: Antifungal activity against Aspergillus fumigatus isolated from human after 72 hrs by microdilution method; type: functional
Trichoderma viride [27] = assay: Fungicidal activity against Trichoderma viride IAM 5061 after 72 hrs by microdilution method; type: functional
Trichoderma viride [28] = assay: Antifungal activity against Trichoderma viride IAM 5061 after 72 hrs by microdilution method; type: functional; details: IAM 5061, 72 h
Micrococcus flavus [29] = assay: Antibacterial activity against Micrococcus flavus ATCC 10240 after 24 hrs by microdilution method; type: functional; details: ATCC 10240, 24 h
Listeria monocytogenes [30] = assay: Bactericidal activity against Listeria monocytogenes NCTC 7973 after 72 hrs by microdilution method; type: functional
Micrococcus flavus [31] = assay: Bactericidal activity against Micrococcus flavus ATCC 10240 after 72 hrs by microdilution method; type: functional
Enterobacter cloacae [32] = assay: Bactericidal activity against Enterobacter cloacae ATCC 35030 isolated from human after 72 hrs by microdilution method; type: functional
Aspergillus versicolor [33] = assay: Fungicidal activity against Aspergillus versicolor ATCC 11730 after 72 hrs by microdilution method; type: functional
Aspergillus versicolor [34] = assay: Antifungal activity against Aspergillus versicolor ATCC 11730 after 72 hrs by microdilution method; type: functional; details: ATCC 11730, 72 h

Structure (SMILES) | MFC99.5 (Penicillium ochrochloron [1]) | MBC99.5 (Escherichia coli [2]) | MIC (Aspergillus niger [3]) | MBC99.5 (Staphylococcus aureus [4]) | MFC99.5 (Aspergillus fumigatus [5]) | MBC99.5 (Bacillus cereus [6]) | MFC99.5 (Talaromyces funiculosus [7]) | MIC (Pseudomonas aeruginosa [9]) | MIC (Talaromyces funiculosus [10]) | MIC (Enterobacter cloacae [11]) | MIC (Candida albicans [12]) | MIC (Aspergillus ochraceus [13]) | MIC (Staphylococcus aureus [14]) | MBC99.5 (Salmonella typhimurium [15]) | MIC (Salmonella typhimurium [16]) | MBC99.5 (Pseudomonas aeruginosa [17]) | MFC99.5 (Candida albicans [18]) | MFC99.5 (Aspergillus ochraceus [19]) | MIC (Bacillus cereus [20]) | MFC99.5 (Aspergillus niger [21]) | other results
CNc1nc(C)c(-c2cc(-c3ccccc3)nc(N)n2)s1 | 5.05 ×10⁻² umol/ml | 6.74 ×10⁻² umol/ml | 50.5 µM (≈ 15 µg/mL) | 10.1 ×10⁻² umol/ml | 6.74 ×10⁻² umol/ml | 6.74 ×10⁻² umol/ml | 6.74 ×10⁻² umol/ml | 33.7 µM (≈ 10 µg/mL) | 33.7 µM (≈ 10 µg/mL) | 67.4 µM (≈ 20 µg/mL) | 33.7 µM (≈ 10 µg/mL) | 33.7 µM (≈ 10 µg/mL) | 84.1 µM (≈ 25 µg/mL) | 6.74 ×10⁻² umol/ml | 33.7 µM (≈ 10 µg/mL) | 6.74 ×10⁻² umol/ml | 6.74 ×10⁻² umol/ml | 6.74 ×10⁻² umol/ml | 33.7 µM (≈ 10 µg/mL) | 6.74 ×10⁻² umol/ml | MIC (Aspergillus flavus [8]): 50.5 µM (≈ 15 µg/mL); MIC (Escherichia coli [22]): 33.7 µM (≈ 10 µg/mL); MIC (Listeria monocytogenes [23]): 101 µM (≈ 30 µg/mL); MFC99.5 (Aspergillus flavus [24]): 6.74 ×10⁻² umol/ml; MIC (Penicillium ochrochloron [25]): 33.7 µM (≈ 10 µg/mL); MIC (Aspergillus fumigatus [26]): 50.5 µM (≈ 15 µg/mL); MFC99.5 (Trichoderma viride [27]): 3.37 ×10⁻² umol/ml; MIC (Trichoderma viride [28]): 25.2 µM (≈ 7.49 µg/mL); MIC (Micrococcus flavus [29]): 33.7 µM (≈ 10 µg/mL); MBC99.5 (Listeria monocytogenes [30]): 11.81 ×10⁻² umol/ml; MBC99.5 (Micrococcus flavus [31]): 8.41 ×10⁻² umol/ml; MBC99.5 (Enterobacter cloacae [32]): 8.41 ×10⁻² umol/ml
CNc1nc(C)c(C2=NN(c3ccccc3)C(c3ccccc3)C2)s1 (stereo not drawn) | 28.7 ×10⁻² umol/ml | 20.1 ×10⁻² umol/ml | 143 µM (≈ 49.8 µg/mL) | 20.1 ×10⁻² umol/ml | 23 ×10⁻² umol/ml | 28.7 ×10⁻² umol/ml | 40.2 ×10⁻² umol/ml | 144 µM (≈ 50.2 µg/mL) | 287 µM (≈ 100 µg/mL) | 144 µM (≈ 50.2 µg/mL) | 172 µM (≈ 59.9 µg/mL) | 143 µM (≈ 49.8 µg/mL) | 115 µM (≈ 40.1 µg/mL) | 28.7 ×10⁻² umol/ml | 172 µM (≈ 59.9 µg/mL) | 45.9 ×10⁻² umol/ml | 23 ×10⁻² umol/ml | 17.2 ×10⁻² umol/ml | 230 µM (≈ 80.1 µg/mL) | 28.7 ×10⁻² umol/ml | MIC (Escherichia coli [22]): 172 µM (≈ 59.9 µg/mL); MIC (Listeria monocytogenes [23]): 57 µM (≈ 19.9 µg/mL); MIC (Penicillium ochrochloron [25]): 143 µM (≈ 49.8 µg/mL); MIC (Aspergillus fumigatus [26]): 143 µM (≈ 49.8 µg/mL); MFC99.5 (Trichoderma viride [27]): 40.2 ×10⁻² umol/ml; MFC99.5 (Aspergillus versicolor [33]): 23 ×10⁻² umol/ml; MIC (Trichoderma viride [28]): 287 µM (≈ 100 µg/mL); MIC (Micrococcus flavus [29]): 115 µM (≈ 40.1 µg/mL); MBC99.5 (Listeria monocytogenes [30]): 11.5 ×10⁻² umol/ml; MBC99.5 (Micrococcus flavus [31]): 23 ×10⁻² umol/ml; MIC (Aspergillus versicolor [34]): 143 µM (≈ 49.8 µg/mL); MBC99.5 (Enterobacter cloacae [32]): 20.1 ×10⁻² umol/ml
Cc1nc(-c2ccccc2)sc1C1=NN(c2ccccc2)C(c2ccccc2)C1 (stereo not drawn) | 32.2 ×10⁻² umol/ml | 17.7 ×10⁻² umol/ml | 253 µM (≈ 100 µg/mL) | 20.2 ×10⁻² umol/ml | 15.2 ×10⁻² umol/ml | 30.4 ×10⁻² umol/ml | 32.2 ×10⁻² umol/ml | 152 µM (≈ 60.1 µg/mL) | 253 µM (≈ 100 µg/mL) | 126 µM (≈ 49.8 µg/mL) | 253 µM (≈ 100 µg/mL) | 126 µM (≈ 49.8 µg/mL) | 126 µM (≈ 49.8 µg/mL) | 25.3 ×10⁻² umol/ml | 202 µM (≈ 79.9 µg/mL) | 25.3 ×10⁻² umol/ml | 30.4 ×10⁻² umol/ml | 20.2 ×10⁻² umol/ml | 152 µM (≈ 60.1 µg/mL) | 32.2 ×10⁻² umol/ml | MIC (Escherichia coli [22]): 101 µM (≈ 39.9 µg/mL); MIC (Listeria monocytogenes [23]): 76 µM (≈ 30.1 µg/mL); MIC (Penicillium ochrochloron [25]): 253 µM (≈ 100 µg/mL); MIC (Aspergillus fumigatus [26]): 126 µM (≈ 49.8 µg/mL); MFC99.5 (Trichoderma viride [27]): 25.3 ×10⁻² umol/ml; MFC99.5 (Aspergillus versicolor [33]): 15.2 ×10⁻² umol/ml; MIC (Trichoderma viride [28]): 126 µM (≈ 49.8 µg/mL); MIC (Micrococcus flavus [29]): 126 µM (≈ 49.8 µg/mL); MBC99.5 (Listeria monocytogenes [30]): 10.1 ×10⁻² umol/ml; MBC99.5 (Micrococcus flavus [31]): 20.2 ×10⁻² umol/ml; MIC (Aspergillus versicolor [34]): 126 µM (≈ 49.8 µg/mL); MBC99.5 (Enterobacter cloacae [32]): 17.7 ×10⁻² umol/ml
CNc1nc(C)c(C2=NN(c3ccccc3)C(c3ccc(OC)cc3)C2)s1 (stereo not drawn) | 37 ×10⁻² umol/ml | 21.1 ×10⁻² umol/ml | 132 µM (≈ 50 µg/mL) | 15.8 ×10⁻² umol/ml | 37 ×10⁻² umol/ml | 26.4 ×10⁻² umol/ml | 37 ×10⁻² umol/ml | 158 µM (≈ 59.8 µg/mL) | 264 µM (≈ 99.9 µg/mL) | 132 µM (≈ 50 µg/mL) | 264 µM (≈ 99.9 µg/mL) | 132 µM (≈ 50 µg/mL) | 106 µM (≈ 40.1 µg/mL) | 26.4 ×10⁻² umol/ml | 185 µM (≈ 70 µg/mL) | 26.4 ×10⁻² umol/ml | 37 ×10⁻² umol/ml | 13.2 ×10⁻² umol/ml | 158 µM (≈ 59.8 µg/mL) | 26.4 ×10⁻² umol/ml | MIC (Escherichia coli [22]): 185 µM (≈ 70 µg/mL); MIC (Listeria monocytogenes [23]): 53 µM (≈ 20.1 µg/mL); MIC (Penicillium ochrochloron [25]): 264 µM (≈ 99.9 µg/mL); MIC (Aspergillus fumigatus [26]): 264 µM (≈ 99.9 µg/mL); MFC99.5 (Trichoderma viride [27]): 13.2 ×10⁻² umol/ml; MFC99.5 (Aspergillus versicolor [33]): 21.1 ×10⁻² umol/ml; MIC (Trichoderma viride [28]): 132 µM (≈ 50 µg/mL); MIC (Micrococcus flavus [29]): 106 µM (≈ 40.1 µg/mL); MBC99.5 (Listeria monocytogenes [30]): 10.6 ×10⁻² umol/ml; MBC99.5 (Micrococcus flavus [31]): 15.8 ×10⁻² umol/ml; MIC (Aspergillus versicolor [34]): 132 µM (≈ 50 µg/mL); MBC99.5 (Enterobacter cloacae [32]): 18.5 ×10⁻² umol/ml
